Columns and labels:
Test in all cases: Experiment Example 5: influence of composition pH (10.0% maltose), specimen culture, Gram smear
Format in all cases: cell-based
Settings in all cases: 1.0% yeast extract, 1.6% xanthan gum
[1] = test system: Gram-negative bacilli
Source text: (§1) • (1)The preparation of the compositions: Maltose was used to prepare the following compositions according to the method mentioned above: • A. 10.0% maltose, 1.0% yeast extract, 1.6% xanthan gum, pH adjusted to 4.4; • B. 10.0% maltose, 1.0% yeast extract, 1.6% xanthan gum, pH adjusted to 4.8; • C. 10.0% maltose, 1.0% yeast extract, 1.6% xanthan gum, pH adjusted to 5.1; • D. 10.0% maltose, 1.0% yeast extract, 1.6% xanthan gum, pH adjusted to 5.4; • E. 10.0% maltose, 1.0% yeast extract, 1.6% xanthan gum, pH adjusted to 5.8; • F. 10.0% maltose, 1.0% yeast extract, 1.6% xanthan gum, pH adjusted to 6.4; • G. 10.0% maltose, 1.0% yeast extract, 1.6% xanthan gum, pH adjusted to 6.8; • H. 10.0% maltose, 1.0% yeast extract, 1.6% xanthan gum, pH adjusted to 7.2; • (2)The preparation of the test tubes: Compositions prepared above were filled into the test tubes, with each tube containing 5 ml, sterilized, and kept until use for experiments. • (3)Specimen suspension: Vaginal secretion was taken from one of the patients suffering from typical bacterial vaginosis with a cotton swab, then the swab was washed in 2 ml sterilized Trypcase-soy Broth immediately, and thus the specimen suspension was ready. […] Then the tubes were placed in a candle jar and cultivated at 37° C. After 24 hours and 48 hours' culture, culture samples were taken respectively from each of the tubes, then the Gram smears of the samples were observed and the pH values of culture samples were tested.

[2] = test system: Gram-negative cocci
Source text: as §1

[3] = test system: Gram-positive bacilli
Source text: as §1

[4] = test system: Gram-positive cocci
Source text: as §1

[5] = pH of the composition 4.4, 24 hours
[6] = pH of the composition 4.4, 48 hours
[7] = pH of the composition 4.8, 24 hours
[8] = pH of the composition 4.8, 48 hours
[9] = pH of the composition 5.1, 24 hours
[10] = pH of the composition 5.1, 48 hours
[11] = pH of the composition 5.4, 24 hours
[12] = pH of the composition 5.4, 48 hours
[13] = pH of the composition 5.8, 24 hours
[14] = pH of the composition 5.8, 48 hours
[15] = pH of the composition 6.4, 24 hours
[16] = pH of the composition 6.4, 48 hours
[17] = pH of the composition 6.8, 24 hours
[18] = pH of the composition 6.8, 48 hours
[19] = pH of the composition 7.2, 24 hours
[20] = pH of the composition 7.2, 48 hours

Q: How did the “Bacteria G − b (Gram-negative bacilli), 24 hours culture” value (shortened to “Bacteria G − b … 24 hours culture”) [1, 5] turn out when `OC[C@H]1O[C@H](O[C@H]2[C@H](O)[C@@H](O)[C@H](O)O[C@@H]2CO)[C@H](O)[C@@H](O)[C@@H]1O` [Maltose, maltose] was run?
A: Its value is “G − b, ++ (About 10-99 bacteria per field of vision under oil-immersion lens)”.

Q: And the “Bacteria G − b (Gram-negative bacilli), 48 hours culture” value (“Bacteria G − b … 48 hours culture” for short) [1, 6]?
A: The value was “G − b, ++ (About 10-99 bacteria per field of vision under oil-immersion lens)”.

Q: And the “Bacteria G − b … 24 hours culture” value [1, 7]?
A: Its value is “G − b, ++ (About 10-99 bacteria per field of vision under oil-immersion lens)”.

Q: What about the “Bacteria G − b … 48 hours culture” value [1, 8] of the same compound?
A: Its value is “G − b, ++ (About 10-99 bacteria per field of vision under oil-immersion lens)”.

Q: What about the “Bacteria G − b … 24 hours culture” value [1, 9] of the same compound?
A: The value was “G − b, ++ (About 10-99 bacteria per field of vision under oil-immersion lens)”.

Q: What about the “Bacteria G − b … 48 hours culture” value [1, 10] of the same compound?
A: Its value is “G − b, ++ (About 10-99 bacteria per field of vision under oil-immersion lens)”.

Q: And the “Bacteria G − b … 24 hours culture” value [1, 11]?
A: Its value is “G − b, + (1-9 bacteria per field of vision under oil-immersion lens)”.

Q: And the “Bacteria G − b … 48 hours culture” value [1, 12]?
A: Its value is “G − b, ++ (About 10-99 bacteria per field of vision under oil-immersion lens)”.

Q: And the “Bacteria G − b … 24 hours culture” value [1, 13]?
A: Its value is “G − b, ++ (About 10-99 bacteria per field of vision under oil-immersion lens)”.

Q: What about the “Bacteria G − b … 48 hours culture” value [1, 14] of the same compound?
A: Its value is “G − b, ++ (About 10-99 bacteria per field of vision under oil-immersion lens)”.

Q: What about the “Bacteria G − b … 24 hours culture” value [1, 15] of the same compound?
A: Its value is “G − b, ++ (About 10-99 bacteria per field of vision under oil-immersion lens)”.

Q: And the “Bacteria G − b … 48 hours culture” value [1, 16]?
A: The value was “G − b, ++ (About 10-99 bacteria per field of vision under oil-immersion lens)”.

Q: And the “Bacteria G − b … 24 hours culture” value [1, 17]?
A: The value was “G − b, ++ (About 10-99 bacteria per field of vision under oil-immersion lens)”.

Q: And the “Bacteria G − b … 48 hours culture” value [1, 18]?
A: The value was “G − b, ++ (About 10-99 bacteria per field of vision under oil-immersion lens)”.

Q: And the “Bacteria G − b … 24 hours culture” value [1, 19]?
A: Its value is “G − b, + (1-9 bacteria per field of vision under oil-immersion lens)”.

Q: And the “Bacteria G − b … 48 hours culture” value [1, 20]?
A: Its value is “G − b, ++ (About 10-99 bacteria per field of vision under oil-immersion lens)”.

Q: What about the “Bacteria G − c (Gram-negative cocci), 24 hours culture” value (“Bacteria G − c … 24 hours culture” below) [2, 5] of the same compound?
A: Its value is “G − c, − (No or less than one bacterium per field of version under oil-immersion lens)”.

Q: What about the “Bacteria G − c (Gram-negative cocci), 48 hours culture” value (“Bacteria G − c … 48 hours culture” for short) [2, 6] of the same compound?
A: The value was “G − c, − (No or less than one bacterium per field of version under oil-immersion lens)”.

Q: What about the “Bacteria G − c … 24 hours culture” value [2, 7] of the same compound?
A: The value was “G − c, − (No or less than one bacterium per field of version under oil-immersion lens)”.

Q: And the “Bacteria G − c … 48 hours culture” value [2, 8]?
A: Its value is “G − c, − (No or less than one bacterium per field of version under oil-immersion lens)”.

Q: And the “Bacteria G − c … 24 hours culture” value [2, 9]?
A: Its value is “G − c, − (No or less than one bacterium per field of version under oil-immersion lens)”.

Q: And the “Bacteria G − c … 48 hours culture” value [2, 10]?
A: Its value is “G − c, − (No or less than one bacterium per field of version under oil-immersion lens)”.

Q: What about the “Bacteria G − c … 24 hours culture” value [2, 11] of the same compound?
A: Its value is “G − c, − (No or less than one bacterium per field of version under oil-immersion lens)”.

Q: What about the “Bacteria G − c … 48 hours culture” value [2, 12] of the same compound?
A: The value was “G − c, − (No or less than one bacterium per field of version under oil-immersion lens)”.

Q: What about the “Bacteria G − c … 24 hours culture” value [2, 13] of the same compound?
A: Its value is “G − c, − (No or less than one bacterium per field of version under oil-immersion lens)”.

Q: What about the “Bacteria G − c … 48 hours culture” value [2, 14] of the same compound?
A: Its value is “G − c, − (No or less than one bacterium per field of version under oil-immersion lens)”.

Q: And the “Bacteria G − c … 24 hours culture” value [2, 15]?
A: The value was “G − c, − (No or less than one bacterium per field of version under oil-immersion lens)”.

Q: And the “Bacteria G − c … 48 hours culture” value [2, 16]?
A: Its value is “G − c, − (No or less than one bacterium per field of version under oil-immersion lens)”.

Q: And the “Bacteria G − c … 24 hours culture” value [2, 17]?
A: Its value is “G − c, − (No or less than one bacterium per field of version under oil-immersion lens)”.

Q: And the “Bacteria G − c … 48 hours culture” value [2, 18]?
A: The value was “G − c, − (No or less than one bacterium per field of version under oil-immersion lens)”.

Q: And the “Bacteria G − c … 24 hours culture” value [2, 19]?
A: The value was “G − c, − (No or less than one bacterium per field of version under oil-immersion lens)”.

Q: What about the “Bacteria G − c … 48 hours culture” value [2, 20] of the same compound?
A: Its value is “G − c, − (No or less than one bacterium per field of version under oil-immersion lens)”.

Q: And the “Bacteria G + b (Gram-positive bacilli), 24 hours culture” value (from here on “Bacteria G + b … 24 hours culture”) [3, 5]?
A: Its value is “G + b, −˜+”.

Q: What about the “Bacteria G + b (Gram-positive bacilli), 48 hours culture” value (“Bacteria G + b … 48 hours culture” below) [3, 6] of the same compound?
A: Its value is “G + b, −˜+”.

Q: What about the “Bacteria G + b … 24 hours culture” value [3, 7] of the same compound?
A: The value was “G + b, + (1-9 bacteria per field of vision under oil-immersion lens)”.

Q: And the “Bacteria G + b … 48 hours culture” value [3, 8]?
A: The value was “G + b, + (1-9 bacteria per field of vision under oil-immersion lens)”.

Q: What about the “Bacteria G + b … 24 hours culture” value [3, 9] of the same compound?
A: The value was “G + b, + (1-9 bacteria per field of vision under oil-immersion lens)”.

Q: What about the “Bacteria G + b … 24 hours culture” value [3, 11] of the same compound?
A: The value was “G + b, +++ (About 100 bacteria or more per field vision under oil-immersion lens, even uncountable)”.

Q: What about the “Bacteria G + b … 24 hours culture” value [3, 13] of the same compound?
A: Its value is “G + b, ++ (About 10-99 bacteria per field of vision under oil-immersion lens)”.

Q: And the “Bacteria G + b … 48 hours culture” value [3, 14]?
A: The value was “G + b, +++ (About 100 bacteria or more per field vision under oil-immersion lens, even uncountable)”.

Q: And the “Bacteria G + b … 24 hours culture” value [3, 15]?
A: Its value is “G + b, + (1-9 bacteria per field of vision under oil-immersion lens)”.

Q: What about the “Bacteria G + b … 48 hours culture” value [3, 16] of the same compound?
A: Its value is “G + b, +++ (About 100 bacteria or more per field vision under oil-immersion lens, even uncountable)”.

Q: And the “Bacteria G + b … 24 hours culture” value [3, 17]?
A: The value was “G + b, ++ (About 10-99 bacteria per field of vision under oil-immersion lens)”.

Q: What about the “Bacteria G + b … 48 hours culture” value [3, 18] of the same compound?
A: The value was “G + b, +++ (About 100 bacteria or more per field vision under oil-immersion lens, even uncountable)”.

Q: What about the “Bacteria G + b … 24 hours culture” value [3, 19] of the same compound?
A: Its value is “G + b, ++ (About 10-99 bacteria per field of vision under oil-immersion lens)”.

Q: And the “Bacteria G + b … 48 hours culture” value [3, 20]?
A: The value was “G + b, +++ (About 100 bacteria or more per field vision under oil-immersion lens, even uncountable)”.

Q: What about the “Bacteria G + c (Gram-positive cocci), 24 hours culture” value (shortened to “Bacteria G + c … 24 hours culture”) [4, 5] of the same compound?
A: Its value is “G + c, − (No or less than one bacterium per field of version under oil-immersion lens)”.

Q: What about the “Bacteria G + c (Gram-positive cocci), 48 hours culture” value (shortened to “Bacteria G + c … 48 hours culture”) [4, 6] of the same compound?
A: The value was “G + c, − (No or less than one bacterium per field of version under oil-immersion lens)”.

Q: And the “Bacteria G + c … 24 hours culture” value [4, 7]?
A: Its value is “G + c, + (1-9 bacteria per field of vision under oil-immersion lens)”.

Q: And the “Bacteria G + c … 48 hours culture” value [4, 8]?
A: The value was “G + c, + (1-9 bacteria per field of vision under oil-immersion lens)”.

Q: And the “Bacteria G + c … 24 hours culture” value [4, 9]?
A: The value was “G + c, + (1-9 bacteria per field of vision under oil-immersion lens)”.

Q: And the “Bacteria G + c … 48 hours culture” value [4, 10]?
A: Its value is “G + c, ++ (About 10-99 bacteria per field of vision under oil-immersion lens)”.

Q: And the “Bacteria G + c … 24 hours culture” value [4, 11]?
A: Its value is “G + c, + (1-9 bacteria per field of vision under oil-immersion lens)”.

Q: And the “Bacteria G + c … 48 hours culture” value [4, 12]?
A: The value was “G + c, − (No or less than one bacterium per field of version under oil-immersion lens)”.

Q: What about the “Bacteria G + c … 24 hours culture” value [4, 13] of the same compound?
A: The value was “G + c, + (1-9 bacteria per field of vision under oil-immersion lens)”.

Q: What about the “Bacteria G + c … 48 hours culture” value [4, 14] of the same compound?
A: Its value is “G + c, + (1-9 bacteria per field of vision under oil-immersion lens)”.

Q: What about the “Bacteria G + c … 24 hours culture” value [4, 15] of the same compound?
A: Its value is “G + c, + (1-9 bacteria per field of vision under oil-immersion lens)”.

Q: And the “Bacteria G + c … 48 hours culture” value [4, 16]?
A: Its value is “G + c, + (1-9 bacteria per field of vision under oil-immersion lens)”.

Q: What about the “Bacteria G + c … 24 hours culture” value [4, 17] of the same compound?
A: Its value is “G + c, − (No or less than one bacterium per field of version under oil-immersion lens)”.

Q: What about the “Bacteria G + c … 48 hours culture” value [4, 18] of the same compound?
A: Its value is “G + c, + (1-9 bacteria per field of vision under oil-immersion lens)”.

Q: And the “Bacteria G + c … 24 hours culture” value [4, 19]?
A: The value was “G + c, − (No or less than one bacterium per field of version under oil-immersion lens)”.

Q: And the “Bacteria G + c … 48 hours culture” value [4, 20]?
A: The value was “G + c, − (No or less than one bacterium per field of version under oil-immersion lens)”.

Source: patent US6964949B2, “Pharmaceutical compositions for promoting the growth of gram-positive bacilli and increasing the acidity in the vagina and the use thereof” (Shanghai Jiao Da Onlly Co., Ltd., priority 2000, dated 2005)
